Test results as given in article PMC5701947, “β1-Adrenergic Receptor Contains Multiple IA^k and IE^k Binding Epitopes That Induce T Cell Responses with Varying Degrees of Autoimmune Myocarditis in A/J Mice” (Frontiers in Immunology, 2017).

Test system: T cells (lymph node cells/splenocytes from immunized animals)
Assay: T cell proliferation assay ([3H]-thymidine)
Assay type: cell-based, A/J mice
Details: fold vs medium control
Protocol: At termination, lymph nodes (maxillary, mandibular, axillary, inguinal, and popliteal) and spleens were harvested from immunized animals to prepare single cell suspensions. Similarly, splenocytes were prepared from naive animals. After lysing the erythrocytes and washing, cell pellets were suspended in RPMI medium containing 10% fetal bovine serum, 1 mM sodium pyruvate, 4 mM L-glutamine, 1 × each of non-essential amino acids and vitamin mixture, and 100 U/ml penicillin–streptomycin (Lonza, Walkersville, MD, USA; hereafter called growth medium). In some experiments, CD4 T cells and CD8 T cells were enriched to a purity of ~95% by negative selection based on magnetic separation using IMAG (BD Biosciences, San Jose, CA, USA) ([31]). To stimulate CD4 and CD8 T cells, syngeneic naive irradiated splenocytes loaded with peptides were used as antigen-presenting cells at a ratio of 1:1. Cells were stimulated at a density of ~5 × 10^6 cells/ml in triplicates with or without the immunizing peptides (0–100 µg/ml) in growth medium. RNase 43–56 or HEL 46–61 were used as irrelevant controls. After 2 days, cells were pulsed with tritiated ^3[H]-thymidine (1 μCi/well; MP Biomedicals, Santa Ana, CA, USA), and 16 h later, proliferative responses were measured as counts per minute (cpm) using a Wallac liquid scintillation counter (Perkin Elmer, Waltham, MA, USA) ([26], [28], [30]).

[1] = 10 μg/ml, animals immunized with pool II
[2] = 100 μg/ml, animals immunized with pool II
[3] = 10 μg/ml, animals immunized with pool I
[4] = 100 μg/ml, animals immunized with pool I
[5] = 10 μg/ml, animals immunized with pool III
[6] = 100 μg/ml, animals immunized with pool III
[7] = 10 μg/ml, animals immunized with pool V
[8] = 100 μg/ml, animals immunized with pool V
[9] = 10 μg/ml, animals immunized with pool VI
[10] = 100 μg/ml, animals immunized with pool VI
[11] = 10 μg/ml, animals immunized with pool VII
[12] = 100 μg/ml, animals immunized with pool VII
[13] = 10 μg/ml, animals immunized with pool VIII
[14] = 100 μg/ml, animals immunized with pool VIII

In the case of “BAR 101-120: 20-mer of mouse β1AR peptide library (ASADLVMGLLVVPFGATIVV; UniProt P34971 101-120, looked up, fragment)”, the T cell responses [1] was 1.01 fold and the T cell responses [2] was 1.02 fold.

“β1AR 1-20: 20-mer of mouse β1AR peptide library (MGAGALALGASEPCNLSSAA; UniProt P34971 1-20, looked up, fragment)” was tested, and the T cell responses [3] was 1.52 fold and the T cell responses [4] was 1.90 fold.

Substance “β1AR 11-30: 20-mer of mouse β1AR peptide library (SEPCNLSSAAPLPDGAATAA; UniProt P34971 11-30, looked up, fragment)” has a T cell responses [3] of 1.84 fold and a T cell responses [4] of 2.06 fold.

“β1AR 21-40: 20-mer of mouse β1AR peptide library (PLPDGAATAARLLVLASPPA; UniProt P34971 21-40, looked up, fragment)” gave a T cell responses [3] of 1.33 fold and a T cell responses [4] of 1.43 fold.

Substance “β1AR 31-50: 20-mer of mouse β1AR peptide library (RLLVLASPPASLLPPASEGS; UniProt P34971 31-50, looked up, fragment)” has a T cell responses [3] of 0.97 fold and a T cell responses [4] of 1.30 fold.

“β1AR 41-60: 20-mer of mouse β1AR peptide library (SLLPPASEGSAPLSQQWTAG; UniProt P34971 41-60, looked up, fragment)” was tested, and the T cell responses [3] was 0.84 fold and the T cell responses [4] was 1.10 fold.

In the case of “β1AR 51-70: 20-mer of mouse β1AR peptide library (APLSQQWTAGMGLLLALIVL; UniProt P34971 51-70, looked up, fragment)”, the T cell responses [1] was 1.10 fold and the T cell responses [2] was 1.38 fold.

“β1AR 71-90: 20-mer of mouse β1AR peptide library (LIVVGNVLVIVAIAKTPRLQ; UniProt P34971 71-90, looked up, fragment)” was tested, and the T cell responses [1] was 2.71 fold and the T cell responses [2] was 3.78 fold.

Work on “β1AR 81-100: 20-mer of mouse β1AR peptide library (VAIAKTPRLQTLTNLFIMSL; UniProt P34971 81-100, looked up, fragment)” yielded a T cell responses [1] of 1.65 fold and a T cell responses [2] of 2.36 fold.

Substance “β1AR 91-110: 20-mer of mouse β1AR peptide library (TLTNLFIMSLASADLVMGLL; UniProt P34971 91-110, looked up, fragment)” has a T cell responses [1] of 1.67 fold and a T cell responses [2] of 1.93 fold.

Work on “β1AR 111-130: 20-mer of mouse β1AR peptide library (VVPFGATIVVWGRWEYGSFF; UniProt P34971 111-130, looked up, fragment)” yielded a T cell responses [5] of 1.97 fold and a T cell responses [6] of 2.49 fold.

For “β1AR 121-140: 20-mer of mouse β1AR peptide library (WGRWEYGSFFCELWTSVDVL; UniProt P34971 121-140, looked up, fragment)”, the T cell responses [5] was 1.08 fold and the T cell responses [6] was 1.26 fold.

“β1AR 131-150: 20-mer of mouse β1AR peptide library (CELWTSVDVLCVTASIETLC; UniProt P34971 131-150, looked up, fragment)” showed a T cell responses [5] of 1.28 fold and a T cell responses [6] of 1.72 fold.

“β1AR 151-170: 20-mer of mouse β1AR peptide library (VIALDRYLAITSPFRYQSLL; UniProt P34971 151-170, looked up, fragment)” gave a T cell responses [5] of 2.24 fold and a T cell responses [6] of 2.43 fold.

Work on “β1AR 161-180: 20-mer of mouse β1AR peptide library (TSPFRYQSLLTRARARALVC; UniProt P34971 161-180, looked up, fragment)” yielded a T cell responses [5] of 1.03 fold and a T cell responses [6] of 1.29 fold.

Work on “β1AR 221-240: 20-mer of mouse β1AR peptide library (NRAYAIASSVVSFYVPLCIM; UniProt P34971 221-240, looked up, fragment)” yielded a T cell responses [7] of 1.18 fold and a T cell responses [8] of 1.01 fold.

In the case of “β1AR 231-250: 20-mer of mouse β1AR peptide library (VSFYVPLCIMAFVYLRVFRE; UniProt P34971 231-250, looked up, fragment)”, the T cell responses [7] was 1.42 fold and the T cell responses [8] was 1.85 fold.

“β1AR 241-260: 20-mer of mouse β1AR peptide library (AFVYLRVFREAQKQVKKIDS; UniProt P34971 241-260, looked up, fragment)” gave a T cell responses [7] of 1.52 fold and a T cell responses [8] of 2.02 fold.

With “β1AR 251-270: 20-mer of mouse β1AR peptide library (AQKQVKKIDSCERRFLGGPA; UniProt P34971 251-270, looked up, fragment)” the T cell responses [7] was 1.12 fold and the T cell responses [8] was 1.81 fold.

“β1AR 261-280: 20-mer of mouse β1AR peptide library (CERRFLGGPARPPSPEPSPS; UniProt P34971 261-280, looked up, fragment)” gave a T cell responses [7] of 0.86 fold and a T cell responses [8] of 1.32 fold.

“β1AR 271-290: 20-mer of mouse β1AR peptide library (RPPSPEPSPSPGPPRPADSL; UniProt P34971 271-290, looked up, fragment)” gave a T cell responses [9] of 1.05 fold and a T cell responses [10] of 1.13 fold.

“β1AR 281-300: 20-mer of mouse β1AR peptide library (PGPPRPADSLANGRSSKRRP; UniProt P34971 281-300, looked up, fragment)” showed a T cell responses [9] of 0.92 fold and a T cell responses [10] of 0.93 fold.

“β1AR 291-310: 20-mer of mouse β1AR peptide library (ANGRSSKRRPSRLVALREQK; UniProt P34971 291-310, looked up, fragment)” showed a T cell responses [9] of 0.87 fold and a T cell responses [10] of 1.66 fold.

“β1AR 301-320: 20-mer of mouse β1AR peptide library (SRLVALREQKALKTLGIIMG; UniProt P34971 301-320, looked up, fragment)” showed a T cell responses [9] of 2.03 fold and a T cell responses [10] of 1.93 fold.

“β1AR 311-330: 20-mer of mouse β1AR peptide library (ALKTLGIIMGVFTLCWLPFF; UniProt P34971 311-330, looked up, fragment)” gave a T cell responses [9] of 1.30 fold and a T cell responses [10] of 1.21 fold.

“β1AR 321-340: 20-mer of mouse β1AR peptide library (VFTLCWLPFFLANVVKAFHR; UniProt P34971 321-340, looked up, fragment)” gave a T cell responses [11] of 3.23 fold and a T cell responses [12] of 2.21 fold.

“β1AR 331-350: 20-mer of mouse β1AR peptide library (LANVVKAFHRDLVPDRLFVF; UniProt P34971 331-350, looked up, fragment)” showed a T cell responses [11] of 1.05 fold and a T cell responses [12] of 1.49 fold.

“β1AR 341-360: 20-mer of mouse β1AR peptide library (DLVPDRLFVFFNWLGYANSA; UniProt P34971 341-360, looked up, fragment)” showed a T cell responses [11] of 1.02 fold and a T cell responses [12] of 1.47 fold.

“β1AR 351-370: 20-mer of mouse β1AR peptide library (FNWLGYANSAFNPIIYCRSP; UniProt P34971 351-370, looked up, fragment)” was tested, and the T cell responses [11] was 1.86 fold and the T cell responses [12] was 1.82 fold.

With “β1AR 361-380: 20-mer of mouse β1AR peptide library (FNPIIYCRSPDFRKAFQRLL; UniProt P34971 361-380, looked up, fragment)” the T cell responses [11] was 2.06 fold and the T cell responses [12] was 1.82 fold.

“β1AR 371-390: 20-mer of mouse β1AR peptide library (DFRKAFQRLLCCARRAACRR; UniProt P34971 371-390, looked up, fragment)” gave a T cell responses [13] of 1.14 fold and a T cell responses [14] of 0.60 fold.

“β1AR 401-420: 20-mer of mouse β1AR peptide library (SGCLARAGPPPSPGAPSDDD; UniProt P34971 401-420, looked up, fragment)” was tested, and the T cell responses [13] was 0.90 fold and the T cell responses [14] was 0.88 fold.

Substance “β1AR 411-430: 20-mer of mouse β1AR peptide library (PSPGAPSDDDDDDAGTTPPA; UniProt P34971 411-430, looked up, fragment)” has a T cell responses [13] of 0.93 fold and a T cell responses [14] of 0.94 fold.

With “β1AR 421-440: 20-mer of mouse β1AR peptide library (DDDAGTTPPARLLEPWTGCN; UniProt P34971 421-440, looked up, fragment)” the T cell responses (10 μg/ml, animals immunized with pool IX) was 1.12 fold and the T cell responses (100 μg/ml, animals immunized with pool IX) was 1.21 fold.
